Tests used:
Format in all cases: biochemical
[1] = target: MMP-1 (Homo sapiens, UniProt P03956); conditions: read-out: IC50 MMP-1 (FRET assay)
[2] = target: BoNT/B LC (Clostridium botulinum, UniProt P10844); conditions: read-out: IC50 BoNT/B LC FRET
[3] = target: MMP-2 (Homo sapiens, UniProt P08253); conditions: read-out: IC50 MMP-2 (FRET assay)
[4] = target: BaLF (Bacillus anthracis, UniProt P15917); conditions: read-out: IC50 BaLF FRET
[5] = target: MMP-9 (Homo sapiens, UniProt P14780); conditions: read-out: IC50 MMP-9 (FRET assay)
Sequence of MMP-9 (P14780 94-707): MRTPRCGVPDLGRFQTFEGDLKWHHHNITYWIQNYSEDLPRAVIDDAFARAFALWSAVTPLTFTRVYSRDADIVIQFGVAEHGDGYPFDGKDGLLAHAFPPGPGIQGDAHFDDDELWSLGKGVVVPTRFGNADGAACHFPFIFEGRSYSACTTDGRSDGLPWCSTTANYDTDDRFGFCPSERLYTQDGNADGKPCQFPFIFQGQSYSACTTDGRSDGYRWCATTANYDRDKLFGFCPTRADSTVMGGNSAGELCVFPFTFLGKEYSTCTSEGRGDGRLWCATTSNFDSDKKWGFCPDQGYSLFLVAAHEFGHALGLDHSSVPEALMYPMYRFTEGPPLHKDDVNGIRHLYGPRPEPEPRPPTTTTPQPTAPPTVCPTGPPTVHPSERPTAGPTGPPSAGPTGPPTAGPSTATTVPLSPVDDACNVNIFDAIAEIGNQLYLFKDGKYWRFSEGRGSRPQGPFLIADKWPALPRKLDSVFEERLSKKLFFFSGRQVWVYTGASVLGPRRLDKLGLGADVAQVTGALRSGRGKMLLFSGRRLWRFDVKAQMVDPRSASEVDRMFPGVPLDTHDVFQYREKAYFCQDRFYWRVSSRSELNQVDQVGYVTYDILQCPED

[6] = target: BoNT/A LC (Clostridium botulinum, UniProt P0DPI0)
Sequence of BoNT/A LC (P0DPI0 2-448 limits assumed): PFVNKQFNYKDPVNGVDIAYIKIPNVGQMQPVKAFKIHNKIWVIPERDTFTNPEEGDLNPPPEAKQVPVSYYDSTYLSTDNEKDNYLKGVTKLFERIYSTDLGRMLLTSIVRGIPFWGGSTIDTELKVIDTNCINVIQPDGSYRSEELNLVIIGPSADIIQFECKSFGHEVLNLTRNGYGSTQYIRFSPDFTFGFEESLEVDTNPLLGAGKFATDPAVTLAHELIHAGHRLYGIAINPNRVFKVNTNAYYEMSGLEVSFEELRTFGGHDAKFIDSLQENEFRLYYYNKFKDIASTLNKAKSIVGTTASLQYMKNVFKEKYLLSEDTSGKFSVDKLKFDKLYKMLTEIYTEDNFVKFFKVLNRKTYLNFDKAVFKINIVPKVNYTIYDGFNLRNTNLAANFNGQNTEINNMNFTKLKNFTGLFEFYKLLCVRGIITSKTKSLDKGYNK

Sequence of BaLF (P15917 34-809 limits assumed): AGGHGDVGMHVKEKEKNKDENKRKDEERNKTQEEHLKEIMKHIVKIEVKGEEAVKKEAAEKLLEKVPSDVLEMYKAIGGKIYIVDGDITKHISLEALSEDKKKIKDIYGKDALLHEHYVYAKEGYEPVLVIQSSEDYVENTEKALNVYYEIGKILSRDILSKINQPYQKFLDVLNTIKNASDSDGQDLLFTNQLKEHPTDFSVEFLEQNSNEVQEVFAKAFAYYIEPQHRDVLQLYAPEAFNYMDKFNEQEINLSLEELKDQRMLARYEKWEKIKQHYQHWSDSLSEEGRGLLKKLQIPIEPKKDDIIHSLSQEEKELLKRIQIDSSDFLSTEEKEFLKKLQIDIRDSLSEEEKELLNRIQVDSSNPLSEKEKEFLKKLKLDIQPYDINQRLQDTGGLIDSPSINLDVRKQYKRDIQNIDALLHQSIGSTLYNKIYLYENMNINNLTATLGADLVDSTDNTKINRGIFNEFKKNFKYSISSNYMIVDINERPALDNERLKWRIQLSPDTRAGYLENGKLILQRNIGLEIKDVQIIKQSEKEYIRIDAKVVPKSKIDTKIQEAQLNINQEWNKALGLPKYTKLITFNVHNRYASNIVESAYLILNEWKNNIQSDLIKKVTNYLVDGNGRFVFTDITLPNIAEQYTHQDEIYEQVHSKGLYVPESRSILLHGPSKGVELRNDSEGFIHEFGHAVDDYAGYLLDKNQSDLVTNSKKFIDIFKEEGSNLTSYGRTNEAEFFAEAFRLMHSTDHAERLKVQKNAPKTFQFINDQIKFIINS
Sequence of MMP-2 (P08253 110-660): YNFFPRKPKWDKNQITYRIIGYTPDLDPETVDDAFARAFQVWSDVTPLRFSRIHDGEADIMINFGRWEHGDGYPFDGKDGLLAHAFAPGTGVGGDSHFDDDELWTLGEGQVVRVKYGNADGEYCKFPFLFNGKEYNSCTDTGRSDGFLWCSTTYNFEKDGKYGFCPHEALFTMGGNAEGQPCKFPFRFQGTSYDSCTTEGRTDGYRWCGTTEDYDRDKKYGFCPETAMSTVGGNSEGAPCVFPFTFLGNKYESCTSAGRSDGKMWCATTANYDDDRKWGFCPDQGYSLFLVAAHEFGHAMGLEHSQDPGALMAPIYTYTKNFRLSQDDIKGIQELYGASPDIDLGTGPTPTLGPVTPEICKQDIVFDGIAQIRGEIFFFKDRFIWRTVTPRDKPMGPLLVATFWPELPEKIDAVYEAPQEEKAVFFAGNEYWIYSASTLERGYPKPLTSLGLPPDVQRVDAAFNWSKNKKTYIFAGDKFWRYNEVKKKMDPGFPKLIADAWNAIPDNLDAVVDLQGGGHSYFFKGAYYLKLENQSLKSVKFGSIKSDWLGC
Sequence of MMP-1 (P03956 100-469): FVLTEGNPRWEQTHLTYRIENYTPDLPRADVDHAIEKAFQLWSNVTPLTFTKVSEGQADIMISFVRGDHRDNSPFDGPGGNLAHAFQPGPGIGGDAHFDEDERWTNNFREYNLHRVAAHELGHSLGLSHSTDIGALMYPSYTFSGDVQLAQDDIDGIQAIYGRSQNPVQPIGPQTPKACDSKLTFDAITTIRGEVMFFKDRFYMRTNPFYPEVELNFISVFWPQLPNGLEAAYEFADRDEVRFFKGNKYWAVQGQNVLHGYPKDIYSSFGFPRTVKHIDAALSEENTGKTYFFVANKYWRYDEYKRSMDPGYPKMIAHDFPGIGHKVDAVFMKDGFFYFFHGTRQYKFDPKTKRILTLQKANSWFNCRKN
Sequence of BoNT/B LC (P10844 2-441 limits assumed): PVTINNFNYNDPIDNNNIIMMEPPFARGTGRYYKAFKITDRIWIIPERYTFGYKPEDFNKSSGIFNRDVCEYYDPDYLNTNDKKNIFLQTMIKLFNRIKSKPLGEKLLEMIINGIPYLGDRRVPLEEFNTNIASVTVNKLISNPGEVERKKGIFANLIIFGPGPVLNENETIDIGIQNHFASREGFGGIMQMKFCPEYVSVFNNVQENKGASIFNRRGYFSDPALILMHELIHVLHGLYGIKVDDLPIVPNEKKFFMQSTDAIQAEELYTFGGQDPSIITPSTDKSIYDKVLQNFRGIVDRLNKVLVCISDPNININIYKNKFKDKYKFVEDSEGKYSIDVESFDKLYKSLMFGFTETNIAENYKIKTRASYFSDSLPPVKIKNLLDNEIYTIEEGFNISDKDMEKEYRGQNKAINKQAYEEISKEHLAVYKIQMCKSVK

Structure (SMILES) | IC50 [1] | IC50 [2] | IC50 [3] | IC50 [4] | IC50 [5] | inhibition of BoNT/A LC activity [6]
O=C(C=Cc1ccc(Cl)cc1Cl)NO [Hydroxamate, N-Hydroxy-2,4-dichlorocinnanamide] | > 100 µM | > 100 µM | > 100 µM | > 100 µM | > 100 µM | 
[Cl-].[Cl-].[Zn+2] [zinc chloride] |  |  |  |  |  | 4–5%
